# Data reported in ChEMBL document CHEMBL1201862, “PubChem BioAssay data set” (2004).
#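 Cells were grown in 96-well plates and exposed to each compound for 48 hours at five concentrations; endpoints were interpolated linearly between bracketing concentrations, or set to the highest concentration if not reached. At the GI50, growth is halved.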 Active and inactive are the calls of the source. Cut-off read from the data, not from the text of the source: active = GI50 up to about 1.1 µM and inactive = higher.
# What was measured:
# Test in all cases: inhibition of tumour cell growth, NCI panel, 48 h
# A549 = system: A549
# CAKI-1 = system: CAKI-1
# EKVX = system: EKVX
# HCT-116 = system: HCT-116
# HL-60 = system: HL-60
# KM12 = system: KM12
# M14 = system: M14
# MOLT-4 = system: MOLT-4
# Malme-3M = system: Malme-3M
# NCI-H460 = system: NCI-H460
# PC-3 = system: PC-3
# RPMI-8226 = system: RPMI-8226
# SF-268 = system: SF-268
# SF-539 = system: SF-539
# SK-MEL-28 = system: SK-MEL-28
# SNB-19 = system: SNB-19
# SNB-75 = system: SNB-75
# SW-620 = system: SW-620
# UACC-62 = system: UACC-62
# UO-31 = system: UO-31
Compound,GI50 (A549),GI50 (CAKI-1),GI50 (EKVX),GI50 (HCT-116),GI50 (HL-60),GI50 (KM12),GI50 (M14),GI50 (MOLT-4),GI50 (Malme-3M),GI50 (NCI-H460),GI50 (PC-3),GI50 (RPMI-8226),GI50 (SF-268),GI50 (SF-539),GI50 (SK-MEL-28),GI50 (SNB-19),GI50 (SNB-75),GI50 (SW-620),GI50 (UACC-62),GI50 (UO-31)
COc1cc(C(c2cccc3ccccc23)N2C(=O)CCC2C(=O)O)cc(OC)c1OC (configuration not stated),> 100 µM (inactive),> 100 µM (inactive),> 100 µM (inactive),> 100 µM (inactive),> 100 µM (inactive),> 100 µM (inactive),> 100 µM (inactive),> 100 µM (inactive),> 100 µM (inactive),> 100 µM (inactive),> 100 µM (inactive),> 100 µM (inactive),> 100 µM (inactive),> 100 µM (inactive),> 100 µM (inactive),> 100 µM (inactive),> 100 µM (inactive),> 100 µM (inactive),> 100 µM (inactive),> 100 µM (inactive)
C=C(CO)[C@H]1Oc2ccc(C(C)=O)cc2[C@@H]1O,> 100 µM (inactive),> 100 µM (inactive),> 100 µM (inactive),> 100 µM (inactive),> 100 µM (inactive),> 100 µM (inactive),> 100 µM (inactive),> 100 µM (inactive),53.3 µM (inactive),> 100 µM (inactive),> 100 µM (inactive),> 100 µM (inactive),> 100 µM (inactive),> 100 µM (inactive),> 100 µM (inactive),> 100 µM (inactive),95.1 µM (inactive),> 100 µM (inactive),> 100 µM (inactive),> 100 µM (inactive)
COc1ccc2c(c1)N=C1CSC(c3cccc(Br)c3)N1C2 (configuration not stated),16.6 µM (inactive),6.19 µM (inactive),13.2 µM (inactive),10.8 µM (inactive),9.51 µM (inactive),10.9 µM (inactive),16.6 µM (inactive),2.99 µM (inactive),18 µM (inactive),7.62 µM (inactive),11.5 µM (inactive),3.72 µM (inactive),28.9 µM (inactive),17.9 µM (inactive),32.8 µM (inactive),22.5 µM (inactive),15.5 µM (inactive),25.5 µM (inactive),15.2 µM (inactive),12.6 µM (inactive)
O=C1CSC2(CC(/C=C/c3ccccc3O)=NN2c2cccc(S(=O)(=O)O)c2)N1c1nc2ccccc2s1 (configuration not stated),50.4 µM (inactive),28.3 µM (inactive),48.1 µM (inactive),38.3 µM (inactive),15.7 µM (inactive),30.6 µM (inactive),59.4 µM (inactive),20.3 µM (inactive),41.9 µM (inactive),34.1 µM (inactive),64 µM (inactive),16 µM (inactive),45 µM (inactive),16.3 µM (inactive),56.5 µM (inactive),53.7 µM (inactive),90.8 µM (inactive),37.3 µM (inactive),29.4 µM (inactive),28.7 µM (inactive)
COc1ccc2c(c1O)-c1c(OC)c(OC)cc3c1[C@H](C2)[N+](C)(C)CC3,> 100 µM (inactive),> 100 µM (inactive),> 100 µM (inactive),> 100 µM (inactive),> 100 µM (inactive),> 100 µM (inactive),> 100 µM (inactive),> 100 µM (inactive),> 100 µM (inactive),> 100 µM (inactive),> 100 µM (inactive),> 100 µM (inactive),> 100 µM (inactive),> 100 µM (inactive),> 100 µM (inactive),> 100 µM (inactive),> 100 µM (inactive),> 100 µM (inactive),> 100 µM (inactive),> 100 µM (inactive)
CC(=O)c1csc2c1C(=O)c1ccccc1C2=O,1.92 µM (inactive),3.99 µM (inactive),5.78 µM (inactive),2.24 µM (inactive),0.29 µM (active),1.53 µM (inactive),1.07 µM (active),–,0.483 µM (active),1.48 µM (inactive),7.57 µM (inactive),5.65 µM (inactive),2.78 µM (inactive),2.08 µM (inactive),1.92 µM (inactive),2.12 µM (inactive),1.73 µM (inactive),2.2 µM (inactive),1.93 µM (inactive),2.64 µM (inactive)
N[C@H](C(=O)O)[C@@H]1CC(Cl)=NO1 [ACIVICIN],0.916 µM (active),2.52 µM (inactive),2.54 µM (inactive),0.746 µM (active),3.44 µM (inactive),–,2.9 µM (inactive),2.14 µM (inactive),4.26 µM (inactive),0.452 µM (active),1.48 µM (inactive),3.3 µM (inactive),1.53 µM (inactive),3.56 µM (inactive),4.4 µM (inactive),–,25.9 µM (inactive),1.07 µM (active),2.79 µM (inactive),6.25 µM (inactive)
